Laboratory results reported in US7109193B2, “Tricyclic diazepines tocolytic oxytocin receptor antagonists” (Wyeth, priority 2001, dated 2006).

Target: T1, human vasopressin V1a receptor subtype (Homo sapiens, UniProt P37288)
T1 construct: host or cells: CHO cells (pZeoSV vector for the Thibonnier line)
Assay: Vasopressin binding in Chinese Hamster Ovary cell membranes expressing human vasopressin V1a subtype receptors
Details: 100 nM, CHO cell membranes, [3H]Manning ligand, values without parentheses
Summary of the method: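 Displacement of [3H]Manning ligand (8 nM working solution) from human V1a receptors in CHO cell membranes, 25–50 μg protein per well. Incubation ran 60 min at room temperature in 50 mM Tris-HCl pH 7.4 with protease inhibitors, followed by filtration and scintillation counting. Results are given as IC50 or percent inhibition.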

T1 sequence (P37288 whole entry): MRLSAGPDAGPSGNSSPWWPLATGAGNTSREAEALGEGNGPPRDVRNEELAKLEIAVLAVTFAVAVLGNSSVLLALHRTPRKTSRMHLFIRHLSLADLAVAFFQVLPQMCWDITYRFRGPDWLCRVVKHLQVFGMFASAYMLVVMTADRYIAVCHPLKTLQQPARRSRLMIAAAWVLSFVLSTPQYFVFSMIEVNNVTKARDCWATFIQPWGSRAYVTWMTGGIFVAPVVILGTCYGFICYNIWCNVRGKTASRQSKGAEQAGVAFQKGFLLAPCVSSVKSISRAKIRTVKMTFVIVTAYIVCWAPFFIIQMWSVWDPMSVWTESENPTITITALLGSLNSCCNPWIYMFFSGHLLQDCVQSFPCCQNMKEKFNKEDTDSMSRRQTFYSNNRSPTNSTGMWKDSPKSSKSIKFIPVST

With `COc1cccc(-c2cc(OC)c(C(=O)N3Cc4ccc(C(=O)N5CCN(CCN6CCOCC6)CC5)n4Cc4ccccc43)cc2Cl)c1` [Example 212, {10-[(6-Chloro-3,3′-dimethoxy[1,1′-biphenyl]-4-yl)carbonyl]-10,11-dihydro-5H-pyrrolo[2,1-c][1,4]benzodiazepin-3-yl}{4-[2-(4-morpholinyl)ethyl]-1-piperazinyi}methanone] the “V1a % inhibition @ 100 nM” value was 35%.
For `COc1ccccc1-c1ccc(C(=O)N2Cc3ccc(C(=O)N4CCC[C@H]4CN4CCCC4)n3Cc3ccccc32)cc1C` [Example 259, {10-[(2′-Methoxy-2-methyl[1,1′-biphenyl]-4-yl)carbonyl]-10,11-dihydro-5H-pyrrolo[2,1-c][1,4]benzodiazepin-3-yl}[(2S)-2-(1-pyrrolidinylmethyl)pyrrolidinyl]methanone], the “V1a % inhibition @ 100 nM” value was 21%.
`Cc1ccccc1-c1ccc(C(=O)N2Cc3ccc(C(=O)N4CCC[C@H]4CN4CCCC4)n3Cc3ccccc32)cc1C` [Example 260, {10-[(2,2′-Dimethyl[1,1′-biphenyl]-4-yl)carbonyl]-10,11-dihydro-5H-pyrrolo[2,1-c][1,4]benzodiazepin-3-yl}[(2S)-2-(1-pyrrolidinylmethyl)pyrrolidinyl]methanone] was tested, and the “V1a % inhibition @ 100 nM” value was 55%.
For `O=C(c1ccc(-c2cccc3ccccc23)cc1Cl)N1Cc2ccc(C(=O)N3CCC[C@H]3CN3CCCC3)n2Cc2ccccc21` [Example 261, {10-[2-Chloro-4-(1-naphthyl)benzoyl]-10,11-dihydro-5H-pyrrolo[2,1-c][1,4]benzodiazepin-3-yl}[(2S)-2-(1-pyrrolidinylmethyl)pyrrolidinyl]methanone], the “V1a % inhibition @ 100 nM” value was 13%.
In the case of `COc1cc(C(=O)N2Cc3ccc(C(=O)N4CCC[C@H]4CN4CCCC4)n3Cc3ccccc32)ccc1-c1cccc2ccccc12` [Example 262, {10-[3-Methoxy-4-(1-naphthyl)benzoyl]-10,11-dihydro-5H-pyrrolo[2,1-c][1,4]benzodiazepin-3-yl}[(2S)-2-(1-pyrrolidinylmethyl)pyrrolidinyl]methanone], the “V1a % inhibition @ 100 nM” value is reported as 8%.
In the case of `Cc1ccccc1-c1ccc(C(=O)N2Cc3ccc(C(=O)N4CCC[C@H]4CN4CCCC4)n3Cc3ccccc32)cc1` [Example 264, {10-[(2′-Methyl[1,1′-biphenyl]-4-yl)carbonyl]-10,11-dihydro-5H-pyrrolo[2,1-c][1,4]benzodiazepin-3-yl}[(2S)-2-(1-pyrrolidinylmethyl)pyrrolidinyl]methanone], the “V1a % inhibition @ 100 nM” value is reported as 67%.
In the case of `COc1ccccc1-c1ccc(C(=O)N2Cc3ccc(C(=O)N4CCC[C@H]4CN4CCCC4)n3Cc3ccccc32)cc1` [Example 265, {10-[(2′-Methoxy[1,1′-biphenyl]-4-yl)carbonyl]-10,11-dihydro-5H-pyrrolo[2,1-c][1,4]benzodiazepin-3-yl}[(2S)-2-(1-pyrrolidinylmethyl)pyrrolidinyl]methanone], the “V1a % inhibition @ 100 nM” value is reported as 31%.
With `COc1cc(C(=O)N2Cc3ccc(C(=O)N4CCC[C@H]4CN4CCCC4)n3Cc3ccccc32)ccc1-c1ccccc1C` [Example 266, {10-[(2-Methoxy-2′-methyl[1,1′-biphenyl]-4-yl)carbonyl]-10,11-dihydro-5H-pyrrolo[2,1-c][1,4]benzodiazepin-3-yl}[(2S)-2-(1-pyrrolidinylmethyl)pyrrolidinyl]methanone] the “V1a % inhibition @ 100 nM” value was 49%.
In the case of `COc1cc(-c2ccccc2C)c(Cl)cc1C(=O)N1Cc2ccc(C(=O)N3CCC[C@H]3CN3CCCC3)n2Cc2ccccc21` [Example 267, {10-[(6-Chloro-3-methoxy-2′-methyl[1,1′-biphenyl]-4-yl)carbonyl]-10,11-dihydro-5H-pyrrolo[2,1-c][1,4]benzodiazepin-3-yl}[(2S)-2-(1-pyrrolidinylmethyl)pyrrolidinyl]methanone], the “V1a % inhibition @ 100 nM” value is reported as 12%.
With `COc1cccc(-c2cc(OC)c(C(=O)N3Cc4ccc(C(=O)N5CCC[C@H]5CN5CCCC5)n4Cc4ccccc43)cc2Cl)c1` [Example 268, {10-[(6-Chloro-3,3′-dimethoxy[1,1′-biphenyl]-4-yl)carbonyl]-10,11-dihydro-5H-pyrrolo[2,1-c][1,4]benzodiazepin-3-yl}[(2S)-2-(1-pyrrolidinylmethyl)pyrrolidinyl]methanone] the “V1a % inhibition @ 100 nM” value was 6%.
With `COc1ccccc1-c1ccc(C(=O)N2Cc3ccc(C(=O)N4CCC[C@H]4CN4CCCC4)n3Cc3ccccc32)cc1OC` [Example 269, {10-[(2,2′-Dimethoxy[1,1′-biphenyl]-4-yl)carbonyl]-10,11-dihydro-5H-pyrrolo[2,1-c][1,4]benzodiazepin-3-yl}[(2S)-2-(1-pyrrolidinylmethyl)pyrrolidinyl]methanone] the “V1a % inhibition @ 100 nM” value was −1%.
For `COc1cccc(-c2ccc(C(=O)N3Cc4ccc(C(=O)N5CCC[C@H]5CN5CCCC5)n4Cc4ccccc43)cc2OC)c1` [Example 270, {10-[(2,3′-Dimethoxy[1,1′-biphenyl]-4-yl)carbonyl]-10,11-dihydro-5H-pyrrolo[2,1-c][1,4]benzodiazepin-3-yl}[(2S)-2-(1-pyrrolidinylmethyl)pyrrolidinyl]methanone], the “V1a % inhibition @ 100 nM” value was 40%.
With `Cc1ccccc1-c1ccc(C(=O)N2Cc3ccc(C(=O)N4CC[C@@H](N(C)C)C4)n3Cc3ccccc32)cc1C` [Example 274, [(3R)-3-(Dimethylamino)pyrrolidinyl]{10-[(2,2′-dimethyl[1,1′-biphenyl]-4-yl)carbonyl]-10,11-dihydro-5H-pyrrolo[2,1-c][1,4]benzodiazepin-3-yl}methanone] the “V1a % inhibition @ 100 nM” value was 90%.
`COc1cccc(-c2cc(OC)c(C(=O)N3Cc4ccc(C(=O)N5CC[C@@H](N(C)C)C5)n4Cc4ccccc43)cc2Cl)c1` [Example 275, {10-[(6-Chloro-3,3′-dimethoxy[1,1′-biphenyl]-4-yl)carbonyl]-10,11-dihydro-5H-pyrrolo[2,1-c][1,4]benzodiazepin-3-yl}[(3R)-3-(dimethylamino)pyrrolidinyl]methanone] was tested, and the “V1a % inhibition @ 100 nM” value was 9%.
For `COc1cc(C(=O)N2Cc3ccc(C(=O)N4CC[C@@H](N(C)C)C4)n3Cc3ccccc32)ccc1-c1cccc2ccccc12` [Example 276, [(3R)-3-(Dimethylamino)pyrrolidinyl]{10-[3-methoxy-4-(1-naphthyl)benzoyl]-10,11-dihydro-5H-pyrrolo[2,1-c][1,4]benzodiazepin-3-yl}methanone], the “V1a % inhibition @ 100 nM” value was 4%.
With `CN(C)[C@@H]1CCN(C(=O)c2ccc3n2Cc2ccccc2N(C(=O)c2ccc(-c4cccc5ccccc45)cc2Cl)C3)C1` [Example 277, {10-[2-Chloro-4-(1-naphthyl)benzoyl]-10,11-dihydro-5H-pyrrolo[2,1-c][1,4]benzodiazepin-3-yl}[(3R)-3-(dimethylamino)pyrrolidinyl]methanone] the “V1a % inhibition @ 100 nM” value was 8%.
With `COc1ccccc1-c1ccc(C(=O)N2Cc3ccc(C(=O)N4CC[C@@H](N(C)C)C4)n3Cc3ccccc32)cc1` [Example 279, [(3R)-3-(Dimethylamino)pyrrolidinyl]{10-[(2′-methoxy[1,1′-biphenyl]-4-yl)carbonyl]-10,11-dihydro-5H-pyrrolo[2,1-c][1,4]benzodiazepin-3-yl}methanone] the “V1a % inhibition @ 100 nM” value was 39%.
With `Cc1ccccc1-c1ccc(C(=O)N2Cc3ccc(C(=O)N4CC[C@@H](N(C)C)C4)n3Cc3ccccc32)cc1` [Example 280, [(3R)-3-(Dimethylamino)pyrrolidinyl]{10-[(2′-methyl[1,1′-biphenyl]-4-yl)carbonyl]-10,11-dihydro-5H-pyrrolo[2,1-c][1,4]benzodiazepin-3-yl}methanone] the “V1a % inhibition @ 100 nM” value was 77%.
With `COc1cc(C(=O)N2Cc3ccc(C(=O)N4CC[C@@H](N(C)C)C4)n3Cc3ccccc32)ccc1-c1ccccc1C` [Example 281, [(3R)-3-(Dimethylamino)pyrrolidinyl]{10-[(2-methoxy-2′-methyl[1,1′-biphenyl]-4-yl)carbonyl]-10,11-dihydro-5H-pyrrolo[2,1-c][1,4]benzodiazepin-3-yl}methanone] the “V1a % inhibition @ 100 nM” value was 58%.
`COc1ccccc1-c1ccc(C(=O)N2Cc3ccc(C(=O)N4CC[C@@H](N(C)C)C4)n3Cc3ccccc32)cc1OC` [Example 282, {10-[(2,2′-Dimethoxy[1,1′-biphenyl]-4-yl)carbonyl]-10,11-dihydro-5H-pyrrolo[2,1-c][1,4]benzodiazepin-3-yl][(3R)-3-(dimethylamino)pyrrolidinyl]methanone] was tested, and the “V1a % inhibition @ 100 nM” value was 1%.
With `COc1cccc(-c2ccc(C(=O)N3Cc4ccc(C(=O)N5CC[C@@H](N(C)C)C5)n4Cc4ccccc43)cc2OC)c1` [Example 283, {10-[(2,3′-Dimethoxy[1,1′-biphenyl]-4-yl)carbonyl]-10,11-dihydro-5H-pyrrolo[2,1-c][1,4]benzodiazepin-3-yl}[(3R)-3-(dimethylamino)pyrrolidinyl]methanone] the “V1a % inhibition @ 100 nM” value was 40%.
With `COc1cc(C(=O)N2Cc3ccc(C(=O)N(C)CCCN(C)C)n3Cc3ccccc32)ccc1-n1c(C)ccc1C` [Example 310, N-[3-(Dimethylamino)propyl]-10-[4-(2,5-dimethyl-i H-pyrrol-1-yl)-3-methoxybenzoyl]-N-methyl-10,11-dihydro-5H-pyrrolo[2,1-c][1,4]benzodiazepine-3-carboxamide] the “V1a % inhibition @ 100 nM” value was 4%.
`COc1cc(C(=O)N2Cc3ccc(C(=O)N4CCC[C@H]4CN4CCCC4)n3Cc3ccccc32)ccc1-n1c(C)ccc1C` [Example 321, {10-[4-(2,5-Dimethyl-1H-pyrrol-1-yl)-3-methoxybenzoyl]-10,11-dihydro-5H-pyrrolo[2,1-c][1,4]benzodiazepin-3-yl}[(2S)-2-(1-pyrrolidinylmethyl)pyrrolidinyl]methanone] was tested, and the “V1a % inhibition @ 100 nM” value was 5%.
